Experimental data from ChEMBL document CHEMBL4373715, “Discovery and Biological Evaluations of Halogenated 2,4-Diphenyl Indeno[1,2-b]pyridinol Derivatives as Potent Topoisomerase IIα-Targeted Chemotherapeutic Agents for Breast Cancer” (J Med Chem, 2019).

Columns and labels:
HCT-15 = test: Antiproliferative activity against human HCT15 cells measured after 72 hrs by EZ-Cytox assay; type: functional, cell-based; conditions: HCT-15, 72 h
T47D = test: Antiproliferative activity against human T47D cells measured after 72 hrs by EZ-Cytox assay; type: functional, cell-based
DU-145 = test: Antiproliferative activity against human DU145 cells measured after 72 hrs by EZ-Cytox assay; type: functional, cell-based; conditions: DU-145, 72 h
HeLa = test: Antiproliferative activity against human HeLa cells measured after 72 hrs by EZ-Cytox assay; type: functional, cell-based
[1] = molecular target: T1, DNA topoisomerase 1 (Homo sapiens) (UniProt P11387); test: Inhibition of recombinant human topoisomerase 1-mediated relaxation of supercoiled pBR322 DNA at 100 uM measured after 30 mins by ethidium bromide staining based agarose gel electrophoresis relative to control
T1 sequence (whole entry): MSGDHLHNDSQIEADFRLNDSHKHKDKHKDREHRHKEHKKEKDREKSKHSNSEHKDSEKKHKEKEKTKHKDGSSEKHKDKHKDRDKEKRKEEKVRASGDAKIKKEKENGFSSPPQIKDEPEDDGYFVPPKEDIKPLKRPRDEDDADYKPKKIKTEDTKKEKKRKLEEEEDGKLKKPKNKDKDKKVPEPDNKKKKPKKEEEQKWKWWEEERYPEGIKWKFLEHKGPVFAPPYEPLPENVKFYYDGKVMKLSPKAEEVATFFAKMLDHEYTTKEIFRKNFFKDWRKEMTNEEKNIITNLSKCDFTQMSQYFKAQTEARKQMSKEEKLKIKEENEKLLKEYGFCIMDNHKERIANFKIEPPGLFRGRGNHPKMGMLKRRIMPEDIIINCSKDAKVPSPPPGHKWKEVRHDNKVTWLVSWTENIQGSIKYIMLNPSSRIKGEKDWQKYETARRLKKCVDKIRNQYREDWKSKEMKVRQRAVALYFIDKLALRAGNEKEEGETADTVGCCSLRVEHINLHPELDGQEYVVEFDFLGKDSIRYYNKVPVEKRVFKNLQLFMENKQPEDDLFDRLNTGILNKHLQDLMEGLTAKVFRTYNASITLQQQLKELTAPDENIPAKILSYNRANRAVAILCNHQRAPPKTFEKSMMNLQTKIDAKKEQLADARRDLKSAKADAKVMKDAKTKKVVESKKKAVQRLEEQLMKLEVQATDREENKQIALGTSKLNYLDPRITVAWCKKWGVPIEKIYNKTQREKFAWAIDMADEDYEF

[2] = molecular target: DNA topoisomerase 2-alpha (Homo sapiens) (UniProt P11388); test: Inhibition of recombinant human topoisomerase 2alpha-mediated relaxation of supercoiled pBR322 DNA at 100 uM measured after 30 mins by ethidium bromide staining based agarose gel electrophoresis relative to control
Sequence of DNA topoisomerase 2-alpha (Homo sapiens) (P11388 whole entry): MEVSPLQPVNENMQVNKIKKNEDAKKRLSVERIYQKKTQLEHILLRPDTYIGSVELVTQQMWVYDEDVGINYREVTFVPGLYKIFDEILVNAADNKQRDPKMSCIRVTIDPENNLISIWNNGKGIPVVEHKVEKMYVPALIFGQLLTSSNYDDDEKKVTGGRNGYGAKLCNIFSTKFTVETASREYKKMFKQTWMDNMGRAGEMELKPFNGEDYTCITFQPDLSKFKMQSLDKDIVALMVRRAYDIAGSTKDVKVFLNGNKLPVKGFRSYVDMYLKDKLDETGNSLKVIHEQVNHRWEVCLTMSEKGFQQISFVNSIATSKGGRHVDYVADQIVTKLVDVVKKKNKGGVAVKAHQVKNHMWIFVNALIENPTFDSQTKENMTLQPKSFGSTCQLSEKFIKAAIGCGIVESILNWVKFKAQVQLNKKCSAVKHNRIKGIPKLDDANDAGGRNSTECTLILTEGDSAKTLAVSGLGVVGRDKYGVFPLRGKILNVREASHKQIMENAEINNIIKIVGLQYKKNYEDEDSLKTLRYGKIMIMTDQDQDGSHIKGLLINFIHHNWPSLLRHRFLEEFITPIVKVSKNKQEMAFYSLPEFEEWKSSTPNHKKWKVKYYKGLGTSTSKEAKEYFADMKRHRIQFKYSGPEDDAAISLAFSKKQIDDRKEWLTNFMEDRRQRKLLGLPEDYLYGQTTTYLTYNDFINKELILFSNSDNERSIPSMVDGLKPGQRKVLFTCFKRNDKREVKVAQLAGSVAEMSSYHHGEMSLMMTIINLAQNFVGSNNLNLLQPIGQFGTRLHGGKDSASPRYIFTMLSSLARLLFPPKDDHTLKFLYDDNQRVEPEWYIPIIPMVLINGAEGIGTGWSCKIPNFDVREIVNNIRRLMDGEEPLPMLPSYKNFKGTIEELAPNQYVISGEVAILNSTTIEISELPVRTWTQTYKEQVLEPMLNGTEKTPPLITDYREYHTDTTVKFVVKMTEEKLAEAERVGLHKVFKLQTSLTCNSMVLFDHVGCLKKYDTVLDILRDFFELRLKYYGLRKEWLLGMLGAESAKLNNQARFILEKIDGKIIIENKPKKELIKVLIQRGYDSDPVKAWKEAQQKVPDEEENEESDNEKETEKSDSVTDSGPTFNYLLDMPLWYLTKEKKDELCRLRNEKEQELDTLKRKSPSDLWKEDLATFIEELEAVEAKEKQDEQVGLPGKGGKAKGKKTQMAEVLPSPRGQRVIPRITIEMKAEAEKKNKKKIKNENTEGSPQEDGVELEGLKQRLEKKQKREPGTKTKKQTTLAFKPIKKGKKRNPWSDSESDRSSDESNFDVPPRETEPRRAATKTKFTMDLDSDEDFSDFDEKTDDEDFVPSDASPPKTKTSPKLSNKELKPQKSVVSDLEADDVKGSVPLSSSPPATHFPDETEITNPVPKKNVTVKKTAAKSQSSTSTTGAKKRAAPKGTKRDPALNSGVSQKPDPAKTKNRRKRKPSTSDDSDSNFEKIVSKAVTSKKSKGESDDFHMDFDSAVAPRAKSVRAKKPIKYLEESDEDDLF

[3] = molecular target: DNA topoisomerase 2-alpha (Homo sapiens) (UniProt P11388); test: Inhibition of recombinant human topoisomerase 2alpha-mediated relaxation of supercoiled pBR322 DNA at 20 uM measured after 30 mins by ethidium bromide staining based agarose gel electrophoresis relative to control

Structure (SMILES)	inhibition [1]	inhibition [2]	inhibition [3]	IC50 (HCT-15)	IC50 (T47D)	IC50 (DU-145)	IC50 (HeLa)
Oc1cccc2c1-c1nc(-c3ccccc3)cc(-c3ccccc3)c1C2	0%	57.5%	0%	2070 nM	740 nM	1400 nM	3080 nM
Oc1ccc(-c2cc(-c3cccc(Cl)c3)nc3c2Cc2ccc(O)cc2-3)cc1	8.7%	71.3%	56.4%	2360 nM	600 nM	480 nM	> 50000 nM
Oc1ccccc1-c1cc(-c2ccc(C(F)(F)F)cc2)nc2c1Cc1c(O)cccc1-2	0%	98.9%	2.4%	4540 nM	1330 nM	3460 nM	6140 nM
Oc1ccccc1-c1cc(-c2ccccc2Cl)nc2c1Cc1c(O)cccc1-2	0%	82%	0%	770 nM	920 nM	830 nM	680 nM
Oc1cccc(-c2cc(-c3cccc(Cl)c3)nc3c2Cc2cccc(O)c2-3)c1	16.9%	88.6%	3.4%	2490 nM	1630 nM	3480 nM	4590 nM
Oc1cccc(-c2cc(-c3ccc(Cl)cc3)nc3c2Cc2c(O)cccc2-3)c1	18.6%	76.8%	42%	1820 nM	1960 nM	2030 nM	4320 nM
Oc1ccccc1-c1cc(-c2ccc(Cl)cc2)c2c(n1)-c1c(O)cccc1C2	0%	70.5%	6.4%	18800 nM	13000 nM	1950 nM	> 50000 nM
Oc1cccc(-c2cc(-c3ccc(Cl)cc3)c3c(n2)-c2c(O)cccc2C3)c1	9.3%	95.7%	8.5%	14700 nM	2220 nM	4070 nM	9010 nM
Oc1cccc(-c2cc(-c3ccc(Cl)cc3)nc3c2Cc2ccc(O)cc2-3)c1	16.7%	87.8%	51.9%	860 nM	3500 nM	4430 nM	1730 nM
Oc1ccc(-c2cc(-c3ccc(C(F)(F)F)cc3)nc3c2Cc2cccc(O)c2-3)cc1	18.5%	82.3%	0%	> 50000 nM	> 50000 nM	13200 nM	> 50000 nM
Oc1cccc(-c2cc(-c3ccccc3)nc3c2Cc2c(O)cccc2-3)c1	4.6%	95.4%	0%	2520 nM	2890 nM	190 nM	6740 nM
Oc1ccc(-c2cc(-c3ccc(Cl)cc3)nc3c2Cc2cc(O)ccc2-3)cc1	0%	100%	50.2%	770 nM	1840 nM	1910 nM	1020 nM
Oc1ccc2c(c1)Cc1c(-c3ccccc3O)cc(-c3ccccc3)nc1-2	8.2%	74.8%	0%	2080 nM	2440 nM	1000 nM	27400 nM
Oc1ccccc1-c1cc(-c2ccc(F)cc2)nc2c1Cc1cccc(O)c1-2	0%	34.4%	0%	2070 nM	740 nM	1400 nM	3080 nM
Oc1ccc(-c2cc(-c3ccccc3)c3c(n2)-c2cc(O)ccc2C3)cc1	20.9%	54.8%	9.3%	1430 nM	3430 nM	570 nM	2740 nM
Oc1ccc(-c2cc(-c3ccccc3Cl)nc3c2Cc2ccc(O)cc2-3)cc1	0%	80.9%	19.2%	3040 nM	950 nM	540 nM	3220 nM
Oc1ccc(-c2cc(-c3ccc(Cl)cc3)c3c(n2)-c2c(O)cccc2C3)cc1	0%	96.8%	9.3%	> 50000 nM	> 50000 nM	> 50000 nM	> 50000 nM
Oc1ccc(-c2cc(-c3cccc(Cl)c3)c3c(n2)-c2c(O)cccc2C3)cc1	3.2%	71.6%	13.3%	> 50000 nM	19000 nM	6040 nM	43800 nM
Oc1ccccc1-c1cc(-c2cccc(Cl)c2)c2c(n1)-c1cccc(O)c1C2	0%	75.4%	1.5%	2450 nM	12000 nM	6010 nM	20500 nM
Oc1ccc(-c2cc(-c3cccc(F)c3)nc3c2Cc2cccc(O)c2-3)cc1	1.1%	67%	3.9%	> 50000 nM	750 nM	5780 nM	7200 nM

More lines, main results first:

inhibition [1]	inhibition [2]	inhibition [3]	Structure (SMILES)	IC50 (HCT-15)	IC50 (T47D)	IC50 (DU-145)	IC50 (HeLa)
0%	98.9%	2.8%	Oc1ccc2c(c1)-c1nc(-c3cccc(C(F)(F)F)c3)cc(-c3ccccc3O)c1C2	2950 nM	510 nM	1630 nM	5250 nM
22.3%	65.1%	28.7%	Oc1cccc(-c2cc(-c3ccc(F)cc3)nc3c2Cc2cc(O)ccc2-3)c1	1920 nM	1720 nM	2940 nM	3740 nM
0%	95%	11.2%	Oc1cccc(-c2cc(-c3ccc(Cl)cc3)nc3c2Cc2cc(O)ccc2-3)c1	850 nM	1500 nM	1280 nM	1090 nM
3.5%	83.7%	1.8%	Oc1ccccc1-c1cc(-c2ccccc2C(F)(F)F)nc2c1Cc1c(O)cccc1-2	1740 nM	3020 nM	1380 nM	3950 nM
1.5%	90.5%	14.3%	Oc1cccc(-c2cc(-c3cccc(Cl)c3)nc3c2Cc2ccc(O)cc2-3)c1	840 nM	1370 nM	3280 nM	5440 nM
8.5%	87.1%	11.1%	Oc1ccc(-c2cc(-c3cccc(C(F)(F)F)c3)nc3c2Cc2ccc(O)cc2-3)cc1	2770 nM	4690 nM	2150 nM	3060 nM
10.2%	36%	3.3%	Oc1cccc(-c2cc(-c3ccccc3)c3c(n2)-c2ccc(O)cc2C3)c1	1300 nM	4120 nM	270 nM	5700 nM
11.6%	76.3%	3.5%	Oc1cccc(-c2cc(-c3cccc(Cl)c3)c3c(n2)-c2cc(O)ccc2C3)c1	6600 nM	7200 nM	3220 nM	6240 nM
10.2%	85.2%	29%	Oc1cccc(-c2cc(-c3cccc(C(F)(F)F)c3)nc3c2Cc2cc(O)ccc2-3)c1	2220 nM	1330 nM	1420 nM	2030 nM
0%	84.8%	4%	Oc1ccccc1-c1cc(-c2ccccc2C(F)(F)F)nc2c1Cc1cccc(O)c1-2	1640 nM	750 nM	2000 nM	1990 nM
7.6%	86.6%	53.6%	Oc1ccc(-c2cc(-c3ccccc3Cl)nc3c2Cc2cc(O)ccc2-3)cc1	1850 nM	1870 nM	430 nM	700 nM
11.7%	80.6%	2.4%	Oc1cccc(-c2cc(-c3ccccc3C(F)(F)F)nc3c2Cc2cc(O)ccc2-3)c1	2820 nM	1250 nM	2500 nM	4000 nM
6.7%	81%	1.2%	Oc1ccc(-c2cc(-c3ccccc3C(F)(F)F)nc3c2Cc2ccc(O)cc2-3)cc1	1320 nM	1470 nM	2780 nM	1520 nM
